Experimental data from ChEMBL document CHEMBL3885861, “Open TG-GATES”.

Species on record: Rattus norvegicus
Assay: Open TG-GATES - Regimen: Single
Type: toxicity, organism-based, Sprague-Dawley
Design: regimen Single, gender Male, age 6 weeks
Conditions: in vivo, po, 60 mg/kg, route gavage, dose level Low; for APTT / Bas / Eos / Fbg / Hb / Ht / Lym / MCH / MCHC / MCV / Mono / Neu / PT / Plat / RBC / Ret / WBC: tissue Blood; for KIDNEY_L / KIDNEY_R / KIDNEY_TOTAL: tissue Kidney; for LIVER: tissue Liver; for A/G / ALP / ALT / AST / BUN / CRE / Ca / Cl / DBIL / GLC / IP / K / LDH / Na / PL / RALB / TBIL / TC / TG / TP / gamma-GTP: tissue Plasma

## CCOC(=O)[C@H](CCc1ccccc1)N[C@@H](C)C(=O)N1CCC[C@H]1C(=O)O
3 h
  TERMINAL_BW: 218.9 g
  APTT: 15.9 s
  Bas: 0%
  Eos: 1%
  Fbg: 216 mg/dL
  Hb: 13.2 g/dL
  Ht: 40.3%
  Lym: 75.6%
  MCH: 21.3 pg
  MCHC: 32.8%
  MCV: 64.7 fL
  Mono: 9.4%
  Neu: 14%
  PT: 12 s
  Plat: 113.1 x10_4/uL
  RBC: 622.2 x10_4/ul
  Ret: 8.4%
  WBC: 113.3 x10_2/uL
  KIDNEY_L: 0.9 g
  KIDNEY_R: 0.9 g
  KIDNEY_TOTAL: 1.9 g
  LIVER: 10.3 g
  A/G: 1.9
  ALP: 851.2 IU/L
  ALT: 38.6 IU/L
  AST: 65.6 IU/L
  BUN: 18.2 mg/dL
  CRE: 0.5 mg/dL
  Ca: 11 mg/dL
  Cl: 106 meq/L
  DBIL: 0.018 mg/dL
  GLC: 203.8 mg/dL
  IP: 9.8 mg/dL
  K: 5.3 meq/L
  LDH: 85 IU/L
  Na: 138.8 meq/L
  PL: 142.2 mg/dL
  RALB: 3.4 g/dL
  TBIL: 0.3 mg/dL
  TC: 84 mg/dL
  TG: 52.2 mg/dL
  TP: 5.3 g/dL
  gamma-GTP: 1.8 IU/L
6 h
  TERMINAL_BW: 221.6 g
  APTT: 15.7 s
  Bas: 0%
  Eos: 1%
  Fbg: 200 mg/dL
  Hb: 13.1 g/dL
  Ht: 39.2%
  Lym: 79.8%
  MCH: 21.7 pg
  MCHC: 33.3%
  MCV: 65.2 fL
  Mono: 5.2%
  Neu: 14.6%
  PT: 12 s
  Plat: 110.6 x10_4/uL
  RBC: 602.6 x10_4/ul
  Ret: 9.2%
  WBC: 122.1 x10_2/uL
  KIDNEY_L: 1 g
  KIDNEY_R: 1 g
  KIDNEY_TOTAL: 2 g
  LIVER: 9.9 g
  A/G: 2.2
  ALP: 728.2 IU/L
  ALT: 36.2 IU/L
  AST: 60.4 IU/L
  BUN: 22 mg/dL
  CRE: 0.5 mg/dL
  Ca: 11.1 mg/dL
  Cl: 104.8 meq/L
  DBIL: 0.054 mg/dL
  GLC: 196 mg/dL
  IP: 10.9 mg/dL
  K: 4.9 meq/L
  LDH: 85.2 IU/L
  Na: 139.4 meq/L
  PL: 136 mg/dL
  RALB: 3.6 g/dL
  TBIL: 0.5 mg/dL
  TC: 78.2 mg/dL
  TG: 44.4 mg/dL
  TP: 5.3 g/dL
  gamma-GTP: 1.4 IU/L
9 h
  TERMINAL_BW: 216 g
  APTT: 16.1 s
  Bas: 0%
  Eos: 1.2%
  Fbg: 195 mg/dL
  Hb: 12.7 g/dL
  Ht: 39.1%
  Lym: 77%
  MCH: 21.6 pg
  MCHC: 32.6%
  MCV: 66.3 fL
  Mono: 4.4%
  Neu: 17%
  PT: 11.7 s
  Plat: 111.5 x10_4/uL
  RBC: 590 x10_4/ul
  Ret: 8.6%
  WBC: 87.4 x10_2/uL
  KIDNEY_L: 1 g
  KIDNEY_R: 1 g
  KIDNEY_TOTAL: 2 g
  LIVER: 9.2 g
  A/G: 1.9
  ALP: 839.6 IU/L
  ALT: 33.2 IU/L
  AST: 69 IU/L
  BUN: 20.2 mg/dL
  CRE: 0.4 mg/dL
  Ca: 10.6 mg/dL
  Cl: 107 meq/L
  DBIL: 0.02 mg/dL
  GLC: 193.4 mg/dL
  IP: 11 mg/dL
  K: 5.1 meq/L
  LDH: 89.4 IU/L
  Na: 138.4 meq/L
  PL: 122.2 mg/dL
  RALB: 3.5 g/dL
  TBIL: 0.4 mg/dL
  TC: 66.8 mg/dL
  TG: 57 mg/dL
  TP: 5.3 g/dL
  gamma-GTP: 1.6 IU/L
24 h
  TERMINAL_BW: 228.5 g
  APTT: 16.3 s
  Bas: 0%
  Eos: 1.4%
  Fbg: 220 mg/dL
  Hb: 12.9 g/dL
  Ht: 39.1%
  Lym: 79.6%
  MCH: 21.5 pg
  MCHC: 33.2%
  MCV: 65 fL
  Mono: 5.4%
  Neu: 14%
  PT: 11 s
  Plat: 114.8 x10_4/uL
  RBC: 602.4 x10_4/ul
  Ret: 8.9%
  WBC: 88.3 x10_2/uL
  KIDNEY_L: 1 g
  KIDNEY_R: 1 g
  KIDNEY_TOTAL: 2.1 g
  LIVER: 11.3 g
  A/G: 2.1
  ALP: 986.4 IU/L
  ALT: 39.2 IU/L
  AST: 61.4 IU/L
  BUN: 16.8 mg/dL
  CRE: 0.5 mg/dL
  Ca: 11.1 mg/dL
  Cl: 104.6 meq/L
  DBIL: 0.006 mg/dL
  GLC: 202.4 mg/dL
  IP: 8.6 mg/dL
  K: 5.4 meq/L
  LDH: 110.4 IU/L
  Na: 138.6 meq/L
  PL: 157.2 mg/dL
  RALB: 3.9 g/dL
  TBIL: 0.4 mg/dL
  TC: 89.4 mg/dL
  TG: 94.6 mg/dL
  TP: 5.8 g/dL
  gamma-GTP: 1.8 IU/L
